Assay results reported in patent publication US10034886B2, “GLP-1 receptor modulators” (Celgene International II SÀRL, priority 2014, dated 2018).
Like-named read-outs stand apart in the source and are kept apart here.

Target: T1, GLP-1R (Homo sapiens, UniProt P43220)
T1 construct: host or cells: GLP-1R CRE-bla CHO-K1 cells
Assay: EC20 GLP-1(9-36) PAM cAMP assay: dose response of compound in the presence of fixed concentration of GLP-1(9-36)
Type: cell-based
Settings: GLP-1R CRE-bla CHO-K1 cells, read-out: EC20 GLP-1(9-36) PAM EC50
Procedure, shortened: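 GLP-1R CRE-bla CHO-K1 cells treated 30 min at 37 °C with 12-point compound dose response plus fixed EC20 GLP-1(9-36), with IBMX, in HBSS/HEPES/0.1% BSA pH 7.4. Total cAMP measured by luminescent detection against standard curve; EC50 and Emax from non-linear regression.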

[1] = compound dose response with fixed concentration of GLP-1(9-36)
[2] = dose response of compound in presence of fixed concentration of GLP-1(9-36)

T1 sequence (P43220 24-463): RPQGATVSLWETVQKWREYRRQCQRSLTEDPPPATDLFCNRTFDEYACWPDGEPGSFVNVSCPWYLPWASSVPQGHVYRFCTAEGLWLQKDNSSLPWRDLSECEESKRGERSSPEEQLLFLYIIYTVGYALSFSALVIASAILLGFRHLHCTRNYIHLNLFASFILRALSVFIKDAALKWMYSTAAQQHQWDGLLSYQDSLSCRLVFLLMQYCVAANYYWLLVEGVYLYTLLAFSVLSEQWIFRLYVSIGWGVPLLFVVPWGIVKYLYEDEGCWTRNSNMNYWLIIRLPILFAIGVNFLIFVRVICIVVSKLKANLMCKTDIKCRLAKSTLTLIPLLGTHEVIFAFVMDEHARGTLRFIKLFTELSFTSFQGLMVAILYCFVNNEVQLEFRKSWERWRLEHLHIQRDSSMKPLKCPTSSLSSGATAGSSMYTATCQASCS
T1 sequence (P01275 100-127 partner limits assumed): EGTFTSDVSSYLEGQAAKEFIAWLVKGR

Compound | EC50 [1] [µM] | EC50 [2] [µM]
CCOc1ccc(C(=O)N[C@@H](Cc2ccc(-c3ncc(-c4ccc(OCCCC(C)C)cc4)cn3)cc2)C(=O)N2CC(C(=O)O)C2)cc1 [Compound 1230] | 0.8 to 2.5 | 
CCCCCCCOc1ccc(-c2cnc(-c3ccc(C[C@H](NC(=O)c4ccc(C(C)(C)C)s4)C(=O)N[C@@H](C(=O)O)[C@@H](C)CC)cc3)nc2)cc1 [Compound 656] |  | 0.8 to 2.5
CCC[C@H]1CC[C@H](C2CCN(c3cnc(-c4ccc(C[C@H](NC(=O)c5ccc(C6(C)CC6)cc5)C(=O)N5CC(C(=O)O)C5)cc4)nc3)CC2)CC1 [Compound 1519] | < 0.8 | 
CCC[C@H]1CC[C@H](C2CCN(c3cnc(-c4ccc(C[C@H](NC(=O)c5ccc(C(C)(C)C)s5)C(=O)N[C@@H](C(=O)O)C(C)C)cc4)nc3)CC2)CC1 [Compound 1449] | < 0.8 | 
CCCCCCCOc1ccc(-c2cnc(-c3ccc(C[C@H](NC(=O)c4ccc(C(C)(C)C)s4)C(=O)O)cc3)c(C)c2)cc1 [Compound 946] |  | 2.5 to 5
CCCCCCCOc1ccc(-c2cnc(-c3ccc(C[C@H](NC(=O)c4ccc(C(C)(C)C)cc4)C(=O)NC(C(=O)O)c4ccc(OC)cc4)cc3)nc2)cc1 (some centres unmarked) [Compound 543] |  | < 0.8
CC[C@H]1CC[C@H](c2ccc(-c3cnc(-c4ccc(C[C@H](NC(=O)c5ccc(C(C)(C)C#N)s5)C(=O)N5CC(C(=O)O)C5)cc4)nc3)cc2)CC1 [Compound 1339] | < 0.8 | 
C[C@@H](NC(=O)[C@H](Cc1ccc(-c2ncc(-c3ccc(C(F)(F)F)cc3)cn2)cc1)NC(=O)c1ccc(C(C)(C)C)s1)C(=O)O [Compound 742] |  | 2.5 to 5
CCCCCCCOc1ccc(-c2cnc(-c3ccc(C[C@H](NC(=O)c4ccc(C(C)(C)C)s4)C(=O)N4CC(C(=O)N(C)C)C4)cc3)nc2)cc1 [Compound 974] |  | 2.5 to 5
CCCCCCCOc1ccc(-c2cnc(-c3ccc(C[C@H](NC(=O)c4ccc(C(C)(C)C)s4)C(=O)NC(C(=O)O)C(O)c4ccc(OC)cc4)cc3)nc2)cc1 (some centres unmarked) [Compound 644] |  | < 0.8
COc1ccc(C2CCN(c3cnc(-c4ccc(C[C@H](NC(=O)c5ccc(C(C)(C)C)s5)C(=O)N5CC(C(=O)O)C5)cc4)nc3)CC2)cc1 [Compound 1425] | 0.8 to 2.5 | 
CC[C@H]1CC[C@H](c2ccc(-c3cnc(-c4ccc(C[C@H](NC(=O)c5ccc(C(C)(C)C)s5)C(=O)N[C@H](C)C(=O)O)cc4)nc3)cc2)CC1 [Compound 1056, ((S)-2-(5-(tert-butyl)thiophene-2-carboxamido)-3-(4-(5-(4-((1r,4r)-4-ethylcyclohexyl)phenyl)pyrimidin-2-yl)phenyl)propanoyl)-D-alanine] |  | < 0.8
CCCCN(Cc1ccc(OC)cc1)S(=O)(=O)c1ccc(-c2cnc(-c3ccc(C[C@H](NC(=O)c4ccc(C(C)(C)C)s4)C(=O)N[C@H](C)C(=O)O)cc3)nc2)cc1 [Compound 1037] |  | 0.8 to 2.5
CCCCCCCOc1ccc(-c2cnc(-c3ccc(C[C@H](NC(=O)c4ccc(C(C)(C)C)cc4)C(=O)NC(CC(=O)O)C4CCOCC4)cc3)nc2)cc1 (some centres unmarked) [Compound 551] |  | < 0.8
CC1CCC(c2ccc(-c3cnc(-c4ccc(C[C@H](NC(=O)c5ccc(C(C)(C)C)s5)C(=O)N[C@H](C)C(=O)O)cc4)nc3)cc2)CC1 (some centres unmarked) [Compound 1145] |  | < 0.8
CC[C@H]1CC[C@H](c2ccc(-c3cnc(-c4ccc(C[C@H](NC(=O)c5ccc(C(C)=O)cc5)C(=O)N5CC(C(=O)O)C5)cc4)nc3)cc2)CC1 [Compound 1162] |  | 2.5 to 5
CC(C)(C)COc1ccc(-c2cnc(-c3ccc(C[C@H](NC(=O)c4ccc(C(C)(C)C)s4)C(=O)O)cc3)nc2)cc1 [Compound 1350] | 2.5 to 5 | 
CCCCCCCOc1ccc(-c2cnc(-c3ccc(C[C@H](NC(=O)c4ccc(C(C)C)cc4)C(=O)N4CC[C@H](C(=O)O)C4)cc3)nc2)cc1 [Compound 844] |  | 0.8 to 2.5
CCCc1ccc(-c2ccc(-c3cnc(-c4ccc(C[C@H](NC(=O)c5ccc(OC(C)(C)C)cc5)C(=O)N5CC(C(=O)O)C5)cc4)nc3)c(F)c2)cc1 [Compound 1403] | < 0.8 | 
CC[C@H]1CC[C@H](c2ccc(-c3cnc(-c4ccc(C[C@H](NC(=O)Cc5ccc(C(C)(C)C)s5)C(=O)N5CC(C(=O)O)C5)cc4)nc3)cc2)CC1 [Compound 1279] | 2.5 to 5 | 
C[C@@H](NC(=O)[C@H](Cc1ccc(-c2ncc(-c3ccc(-c4ccc(F)cc4)cc3)cn2)cc1)NC(=O)c1ccc(C(C)(C)C)s1)C(=O)O [Compound 1305] | < 0.8 | 
CCCc1ccc(CC2CN(c3cnc(-c4ccc(CC(NC(=O)c5ccc(C(C)(C)C)s5)C(=O)N5CC(C(=O)O)C5)cc4)nc3)C2)cc1 (centres unmarked) [Compound 1509] | 5 to 10 | 
CCCCCc1ccc(-c2cnc(-c3ccc(C[C@H](NC(=O)c4ccc(C(C)(C)C)cc4)C(=O)NCCC(=O)O)cc3)nc2)cc1 [Compound 676] |  | 2.5 to 5
COc1cc(/C=C/c2cnc(-c3ccc(C[C@H](NC(=O)c4ccc(C(C)(C)C)s4)C(=O)N[C@H](C)C(=O)O)cc3)nc2)cc(OC)c1 [Compound 1259] | 5 to 10 | 

Compound | EC50 [1] [µM] | EC50 [2] [µM]
CCCCCCCOc1ccc(-c2cnc(-c3ccc(C[C@H](NC(=O)c4ccc(C(C)(C)C)cc4)C(=O)NC(Cc4ccc(Cl)cc4)C(=O)O)cc3)nc2)cc1 (some centres unmarked) [Compound 564] |  | 0.8 to 2.5
CCCCc1ccc(C2CN(c3cnc(-c4ccc(C[C@H](NC(=O)c5ccc(C(C)(C)C)s5)C(=O)N5CC(C(=O)O)C5)cc4)nc3)C2)cc1 [Compound 1503] | 0.8 to 2.5 | 
CCC[C@H]1CC[C@H](C2CCN(c3cnc(-c4ccc(C[C@H](NC(=O)c5ccc(C(C)(C)C)s5)C(=O)N5CCCC[C@H]5C(=O)O)cc4)nc3)CC2)CC1 [Compound 1455] | < 0.8 | 
CCCCCCCOc1ccc(-c2cnc(-c3ccc(C[C@H](NC(=O)c4ccc(C(C)(C)C)s4)C(=O)N[C@@H](CC(=O)O)C(N)=O)cc3)nc2)cc1 [Compound 525] |  | < 0.8
CCCCCCCOc1ccc(-c2cnc(-c3ccc(C[C@H](NC(=O)c4ccc(C(C)(C)C)s4)C(=O)NC[C@@H]4CCNC4)cc3)nc2)cc1 [Compound 439] |  | 2.5 to 5
CCCCCCCOc1ccc(-c2cnc(-c3ccc(C[C@H](NC(=O)c4ccc(C(C)(C)C)cc4)C(=O)N4C[C@H](O)C[C@H]4C(=O)O)cc3)nc2)cc1 [Compound 567] |  | < 0.8
CC(C)(C)COc1ccc(-c2cnc(-c3ccc(C[C@H](NC(=O)c4ccc(C(C)(C)C)s4)C(=O)N4CC[C@H](C(=O)O)C4)cc3)nc2)cc1 [Compound 767] |  | 2.5 to 5
CC(C)(C)c1ccc(C(=O)N[C@@H](Cc2ccc(-c3ncc(-c4ccc(OCCC5CCCCC5)cc4)cn3)cc2)C(=O)NCCC(=O)O)cc1 [Compound 474, (S)-3-(2-(4-(tert-butyl)benzamido)-3-(4-(5-(4-(2-cyclohexylethoxy)phenyl)-pyrimidin-2-yl)phenyl)propanamido)propanoic acid] |  | 0.8 to 2.5
CCCCCCCOc1ccc(-c2cnc(-c3ccc(C[C@H](NC(=O)c4ccc(C(C)(C)C)cc4)C(=O)N4CC(C(=O)O)CC4C)cc3)nc2)cc1 (some centres unmarked) [Compound 893] |  | 2.5 to 5
CC(C)(C)c1ccc(C(=O)N[C@@H](Cc2ccc(-c3ncc(-c4ccc(C5CCCC5)cc4)cn3)cc2)C(=O)N2CCC[C@H]2C(=O)O)s1 [Compound 1123] |  | 0.8 to 2.5
CCCCCCCOc1ccc(-c2cnc(-c3ccc(C[C@H](NC(=O)c4ccc(C(C)(C)C)s4)C(=O)NC(C(=O)O)c4cccc(OC)c4)cc3)nc2)cc1 (some centres unmarked) [Compound 629] |  | 0.8 to 2.5
CCCCCCCOc1ccc(-c2cnc(-c3ccc(C[C@H](NC(=O)c4ccc(C(C)(C)C)s4)C(=O)NC(CCCC)C(=O)O)cc3)nc2)cc1 (some centres unmarked) [Compound 609] |  | < 0.8
CC[C@H]1CC[C@H](c2ccc(-c3cnc(-c4ccc(C[C@H](NC(=O)c5ccc(C(C)(C)C)s5)C(=O)N5CC(C(=O)O)C5)cc4)nc3)cc2)CC1 [Compound 1057, 1-((S)-2-(5-(tert-butyl)thiophene-2-carboxamido)-3-(4-(5-(4-((1r,4r)-4-ethylcyclohexyl)phenyl)pyrimidin-2-yl)phenyl)propanoyl)azetidine-3-carboxylic acid] |  | < 0.8
CCCc1ccc(-c2ccc(-c3cnc(-c4ccc(C[C@H](NC(=O)c5ccc(C(C)(C)C)cc5)C(=O)N5CC(C(=O)O)C5)cc4)nc3)c(F)c2)cc1 [Compound 1399] | < 0.8 | 
CCCCCCCOc1ccc(-c2cnc(-c3ccc(C[C@H](NC(=O)c4ccc(C(C)(C)C)cc4)C(=O)N[C@@H](CC4CCCNC4)C(=O)O)cc3)nc2)cc1 (some centres unmarked) [Compound 577] |  | 2.5 to 5
CC(C)(C)c1ccc(C(=O)N[C@@H](Cc2ccc(-c3ncc(-c4ccc(-c5ccc(F)cc5)cc4F)cn3)cc2)C(=O)N2CC(C(=O)O)C2)s1 [Compound 1213] | < 0.8 | 
CC[C@H]1CC[C@H](c2ccc(-c3cnc(-c4ccc(C[C@H](NC(=O)c5ccc(S(C)(=O)=O)cc5)C(=O)O)cc4)nc3)cc2)CC1 [Compound 1379] | < 0.8 | 
CCCCCCCOc1ccc(-c2cnc(-c3ccc(C[C@H](NC(=O)c4ccc(C(C)(C)C)s4)C(=O)NC(C(=O)O)C(O)C4CC4)cc3)nc2)cc1 (some centres unmarked) [Compound 908] |  | 0.8 to 2.5
CC(C)(C)c1ccc(C(=O)N[C@@H](Cc2ccc(-c3ncc(-c4ccc(OC5CC5)cc4)cn3)cc2)C(=O)N2CC(C(=O)O)C2)s1 [Compound 780] |  | 2.5 to 5
CC(C)CCCOc1ccc(-c2cnc(-c3ccc(C[C@H](NC(=O)c4ccc(C(C)(C)C)s4)C(=O)N[C@H](C)C(=O)O)cc3)nc2)cc1 [Compound 771] |  | 0.8 to 2.5
CC1CCC(c2ccc(-c3cnc(-c4ccc(C[C@H](NC(=O)c5ccc(C(C)(C)C)s5)C(=O)N5CC(C(=O)O)C5)cc4)nc3)cc2)CC1 (some centres unmarked) [Compound 1187] |  | < 0.8
Cc1cccc(C)c1-c1ccc(-c2cnc(-c3ccc(C[C@H](NC(=O)c4ccc(C(C)(C)C)s4)C(=O)N4CC(C(=O)O)C4)cc3)nc2)c(F)c1 [Compound 1205] | < 0.8 | 
Cc1cccc(/C=C/c2cnc(-c3ccc(C[C@H](NC(=O)c4ccc(C(C)(C)C)s4)C(=O)N[C@H](C)C(=O)O)cc3)nc2)c1 [Compound 1254] | 0.8 to 2.5 | 
